24 compounds from patent US10202389B2, “Pyrazolopyrimidinyl inhibitors of ubiquitin-activating enzyme” (Millennium Pharmaceuticals, Inc., priority 2012, dated 2019) can be followed below.

Molecules are shown by their SMILES.

recombinant human UAE, sequence (P22314 whole entry): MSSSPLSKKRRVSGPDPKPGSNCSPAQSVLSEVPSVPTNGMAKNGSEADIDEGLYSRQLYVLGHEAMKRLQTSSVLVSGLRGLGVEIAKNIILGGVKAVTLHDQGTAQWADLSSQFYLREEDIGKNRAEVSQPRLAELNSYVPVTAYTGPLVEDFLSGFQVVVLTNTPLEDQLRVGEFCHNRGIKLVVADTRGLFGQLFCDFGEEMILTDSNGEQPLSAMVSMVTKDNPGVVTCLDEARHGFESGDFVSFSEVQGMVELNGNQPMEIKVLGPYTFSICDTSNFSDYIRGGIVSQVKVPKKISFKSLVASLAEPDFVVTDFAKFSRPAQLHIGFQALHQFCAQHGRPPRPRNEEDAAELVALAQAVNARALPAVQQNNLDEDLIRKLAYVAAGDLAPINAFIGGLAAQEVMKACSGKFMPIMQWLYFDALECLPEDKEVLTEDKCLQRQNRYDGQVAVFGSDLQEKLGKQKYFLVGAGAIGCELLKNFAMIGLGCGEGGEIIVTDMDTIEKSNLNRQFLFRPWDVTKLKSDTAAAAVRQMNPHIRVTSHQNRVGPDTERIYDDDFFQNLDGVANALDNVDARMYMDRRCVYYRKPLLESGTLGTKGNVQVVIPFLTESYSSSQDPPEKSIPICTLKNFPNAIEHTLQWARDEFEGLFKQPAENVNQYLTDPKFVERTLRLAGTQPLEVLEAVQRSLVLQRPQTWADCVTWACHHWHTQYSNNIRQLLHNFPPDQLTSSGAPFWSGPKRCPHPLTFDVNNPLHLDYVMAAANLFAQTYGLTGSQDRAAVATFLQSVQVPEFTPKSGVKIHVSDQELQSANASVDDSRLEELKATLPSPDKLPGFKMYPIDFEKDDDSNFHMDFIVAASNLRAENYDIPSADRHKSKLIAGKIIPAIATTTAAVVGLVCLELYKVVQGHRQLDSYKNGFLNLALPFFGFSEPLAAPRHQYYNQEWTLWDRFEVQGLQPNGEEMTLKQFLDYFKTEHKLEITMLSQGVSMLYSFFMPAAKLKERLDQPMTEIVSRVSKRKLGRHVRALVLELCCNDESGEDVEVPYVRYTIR

The assay concerns the target recombinant human UAE (Homo sapiens (Human), UniProt P22314). The assay is described as follows: Ubiquitin Activating Enzyme (UAE) HTRF Assay. The settings on record: read-out: % inhibition @0.111 μM. Background: TR-FRET usually uses a lanthanide donor and a delayed reading to cut background.
Description: After incubation for 120 minutes, quantification of the FRET is performed on the Pherostar (BMG).
For compounds whose values are marked with an asterisk (*), mouse UAE was used. For all other compounds, human UAE was used.
`NS(=O)(=O)OC[C@H]1C[C@@H](Nc2ccnc3cc(-c4c[nH]c5ccc(Cl)cc45)nn23)[C@H](O)[C@@H]1O` (relative stereo) [Compound I-054, (rac)-[(1R,2R,3S,4R)-4-{[2-(5-chloro-1H-indol-3-yl)pyrazolo[1,5-a]pyrimidin-7-yl]amino}-2,3-dihydroxycyclopentyl]methyl rel-sulfamate]: the inhibition (as a rule, the drop in the measured response relative to a control, in per cent) at 0.111 µM amounted to 100%. To `NS(=O)(=O)OC[C@H]1C[C@@H](Nc2ccnc3cc(-c4c[nH]c5cc(Cl)ccc45)nn23)[C@H](O)[C@@H]1O` (relative stereo) [Compound I-055, (rac)-[(1R,2R,3S,4R)-4-{[2-(6-chloro-1H-indol-3-yl)pyrazolo[1,5-a]pyrimidin-7-yl]amino}-2,3-dihydroxycyclopentyl]methyl rel-sulfamate] belongs 100%. As to `NS(=O)(=O)OC[C@H]1C[C@@H](Nc2ccnc3cc(-c4cccc5c4sc4ccccc45)nn23)[C@H](O)[C@@H]1O` (relative stereo) [Compound I-056, (rac)-((1R,2R,3S,4R)-4-((2-(Dibenzo[b,d]thiophen-4-yl)pyrazolo[1,5-a]pyrimidin-7-yl)amino)-2,3-dihydroxycyclopentyl)methyl rel-sulfamate], the inhibition at 0.111 µM was determined as 100%.

As for `NS(=O)(=O)OC[C@H]1C[C@@H](Nc2ccnc3cc(-c4cc(Cl)ccc4OC(F)(F)F)nn23)[C@H](O)[C@@H]1O` (relative stereo) [Compound I-057, (rac)-((1R,2R,3S,4R)-4-(2-(5-chloro-2-(trifluoromethoxy)phenyl)pyrazolo[1,5-a]pyrimidin-7-ylamino)-2,3-dihydroxycyclopentyl)methyl rel-sulfamate], the inhibition at 0.111 µM worked out at 100%. To `CC(C)(c1cccc(-c2cc3nccc(N[C@@H]4C[C@H](COS(N)(=O)=O)[C@@H](O)[C@H]4O)n3n2)c1)C(F)(F)F` (relative stereo) [Compound I-058, (rac)-((1R,2R,3S,4R)-2,3-dihydroxy-4-(2-(3-(1,1,1-trifluoro-2-methylpropan-2-yl)phenyl)pyrazolo[1,5-a]pyrimidin-7-ylamino)cyclopentyl)methyl rel-sulfamate] belongs 100%; to `NS(=O)(=O)OC[C@H]1C[C@@H](Nc2ccnc3cc(-c4ccnc(C(F)(F)F)c4)nn23)[C@H](O)[C@@H]1O` (relative stereo) [Compound I-059, (rac)-((1R,2R,3S,4R)-2,3-dihydroxy-4-(2-(2-(trifluoromethyl)pyridin-4-yl)pyrazolo[1,5-a]pyrimidin-7-ylamino)cyclopentyl)methyl rel-sulfamate], 94%. Turning to `NS(=O)(=O)OC[C@H]1C[C@@H](Nc2ccnc3cc(-c4ccc(C(F)(F)F)s4)nn23)[C@H](O)[C@@H]1O` (relative stereo) [Compound I-060, (rac)-((1R,2R,3S,4R)-2,3-Dihydroxy-4-((2-(5-(trifluoromethyl)thiophen-2-yl)pyrazolo[1,5-a]pyrimidin-7-yl)amino)cyclopentyl)methyl rel-sulfamate], the inhibition at 0.111 µM was determined as 89%. To `NS(=O)(=O)OC[C@H]1C[C@@H](Nc2ccnc3cc(-c4cccc5sccc45)nn23)[C@H](O)[C@@H]1O` (relative stereo) [Compound I-061, (rac)-((1R,2R,3S,4R)-4-((2-(Benzo[b]thiophen-4-yl)pyrazolo[1,5-a]pyrimidin-7-yl)amino)-2,3-dihydroxycyclopentyl)methyl rel-sulfamate] belongs 100%; to `NS(=O)(=O)OC[C@H]1C[C@@H](Nc2ccnc3cc(-c4ccc5c(c4)[nH]c4ccccc45)nn23)[C@H](O)[C@@H]1O` (relative stereo) [Compound I-062, (rac)-[(1R,2R,3S,4R)-4-{[2-(9H-carbazol-2-yl)pyrazolo[1,5-a]pyrimidin-7-yl]amino}-2,3-dihydroxycyclopentyl]methyl rel-sulfamate], 100%. Take `COc1ccc(C(C)(C)C)cc1-c1cc2nccc(N[C@@H]3C[C@H](COS(N)(=O)=O)[C@@H](O)[C@H]3O)n2n1` (relative stereo) [Compound I-063, (rac)-((1R,2R,3S,4R)-4-{[2-(5-tert-butyl-2-methoxyphenyl)pyrazolo[1,5-a]pyrimidin-7-yl]amino}-2,3-dihydroxycyclopentyl)methyl rel-sulfamate]: the inhibition at 0.111 µM is 100%.

Regarding `NS(=O)(=O)OC[C@H]1C[C@@H](Nc2ccnc3cc(-c4cccc(C(F)(F)F)n4)nn23)[C@H](O)[C@@H]1O` (relative stereo) [Compound I-064, (rac)-((1R,2R,3S,4R)-2,3-dihydroxy-4-(2-(6-(trifluoromethyl)pyridin-2-yl)pyrazolo[1,5-a]pyrimidin-7-ylamino)cyclopentyl)methyl rel-sulfamate], the inhibition at 0.111 µM was 96%. To `COc1ccc(C(F)(F)F)cc1-c1cc2nccc(N[C@@H]3C[C@H](COS(N)(=O)=O)[C@@H](O)[C@H]3O)n2n1` (relative stereo) [Compound I-065, (rac)-((1R,2R,3S,4R)-2,3-Dihydroxy-4-((2-(2-methoxy-5-(trifluoromethyl)phenyl)-pyrazolo[1,5-a]pyrimidin-7-yl)amino)cyclopentyl)methyl rel-sulfamate] belongs 100%. To `COc1ccc(OC(F)(F)F)cc1-c1cc2nccc(N[C@@H]3C[C@H](COS(N)(=O)=O)[C@@H](O)[C@H]3O)n2n1` (relative stereo) [Compound I-066, (rac)-((1R,2R,3S,4R)-2,3-Dihydroxy-4-((2-(2-methoxy-5-(trifluoromethoxy)-phenyl)pyrazolo[1,5-a]pyrimidin-7-yl)amino)cyclopentyl)methyl rel-sulfamate] belongs 100%; to `NS(=O)(=O)OC[C@H]1C[C@@H](Nc2ccnc3cc(-c4cnc(-c5ccccc5)o4)nn23)[C@H](O)[C@@H]1O` (relative stereo) [Compound I-067, (rac)-[(1R,2R,3S,4R)-2,3-dihydroxy-4-{[2-(2-phenyl-1,3-oxazol-5-yl)pyrazolo[1,5-a]pyrimidin-7-yl]amino}cyclopentyl]methyl rel-sulfamate], 100%. Take `NS(=O)(=O)OC[C@H]1C[C@@H](Nc2ccnc3cc(-c4ccccc4Oc4ccccc4)nn23)[C@H](O)[C@@H]1O` (relative stereo) [Compound I-068, (rac)-((1R,2R,3S,4R)-2,3-dihydroxy-4-(2-(2-phenoxyphenyl)pyrazolo[1,5-a]pyrimidin-7-ylamino)cyclopentyl)methyl rel-sulfamate]: the inhibition at 0.111 µM was found to be 95%.

Regarding `NS(=O)(=O)OC[C@H]1C[C@@H](Nc2ccnc3cc(-c4cccc(Cc5ccccc5)c4)nn23)[C@H](O)[C@@H]1O` (relative stereo) [Compound I-069, (rac)-((1R,2R,3S,4R)-4-(2-(3-benzylphenyl)pyrazolo[1,5-a]pyrimidin-7-ylamino)-2,3-dihydroxycyclopentyl)methyl rel-sulfamate], the inhibition at 0.111 µM stood at 84%. With `COc1cc(F)ccc1-c1cc2nccc(N[C@@H]3C[C@H](COS(N)(=O)=O)[C@@H](O)[C@H]3O)n2n1` (relative stereo) [Compound I-070, (rac)-((1R,2R,3S,4R)-4-(2-(4-fluoro-2-methoxyphenyl)pyrazolo[1,5-a]pyrimidin-7-ylamino)-2,3-dihydroxycyclopentyl)methyl rel-sulfamate], the inhibition at 0.111 µM amounted to 99%. Regarding `NS(=O)(=O)OC[C@H]1C[C@@H](Nc2ccnc3cc(-c4csc5ccc(Cl)cc45)nn23)[C@H](O)[C@@H]1O` (relative stereo) [Compound I-071, (rac)-((1R,2R,3S,4R)-4-(2-(5-chlorobenzo[b]thiophen-3-yl)pyrazolo[1,5-a]pyrimidin-7-ylamino)-2,3-dihydroxycyclopentyl)methyl rel-sulfamate], the inhibition at 0.111 µM was determined as 100%.

With `COc1ccccc1-c1cc2nccc(N[C@@H]3C[C@H](COS(N)(=O)=O)[C@@H](O)[C@H]3O)n2n1` (relative stereo) [Compound I-072, (rac)-((1R,2R,3S,4R)-2,3-dihydroxy-4-(2-(2-methoxyphenyl)pyrazolo[1,5-a]pyrimidin-7-ylamino)cyclopentyl)methyl rel-sulfamate], the inhibition at 0.111 µM came to 100%. The same measure for `NS(=O)(=O)OC[C@H]1C[C@@H](Nc2ccnc3cc(-c4cccc(C(=O)c5ccccc5)c4)nn23)[C@H](O)[C@@H]1O` (relative stereo) [Compound I-073, (rac)-((1R,2R,3S,4R)-4-(2-(3-benzoylphenyl)pyrazolo[1,5-a]pyrimidin-7-ylamino)-2,3-dihydroxycyclopentyl)methyl rel-sulfamate]: 91%; for `NS(=O)(=O)OC[C@H]1C[C@@H](Nc2ccnc3cc(-c4ccc5[nH]ccc5c4)nn23)[C@H](O)[C@@H]1O` (relative stereo) [Compound I-074, (rac)-[(1R,2R,3S,4R)-2,3-dihydroxy-4-{[2-(1H-indol-5-yl)pyrazolo[1,5-a]pyrimidin-7-yl]amino}cyclopentyl]methyl rel-sulfamate]: 98%; for `NS(=O)(=O)OC[C@H]1C[C@@H](Nc2ccnc3cc(-c4cccc5[nH]ccc45)nn23)[C@H](O)[C@@H]1O` (relative stereo) [Compound I-075, (rac)-((1R,2R,3S,4R)-4-(2-(1H-indol-4-yl)pyrazolo[1,5-a]pyrimidin-7-ylamino)-2,3-dihydroxycyclopentyl)methyl rel-sulfamate]: 100%.

Turning to `NS(=O)(=O)OC[C@H]1C[C@@H](Nc2ccnc3cc(-c4cccc(SCC5CC5)c4)nn23)[C@H](O)[C@@H]1O` (relative stereo) [Compound I-076, (rac)-((1R,2R,3S,4R)-4-(2-(3-(cyclopropylmethylthio)phenyl)pyrazolo[1,5-a]pyrimidin-7-ylamino)-2,3-dihydroxycyclopentyl)methyl rel-sulfamate], the inhibition at 0.111 µM amounted to 100%. To `NS(=O)(=O)OC[C@H]1C[C@@H](Nc2ccnc3cc(-c4cccc(N5CCCCC5)c4)nn23)[C@H](O)[C@@H]1O` (relative stereo) [Compound I-077, (rac)-((1R,2R,3S,4R)-2,3-dihydroxy-4-(2-(3-(piperidin-1-yl)phenyl)pyrazolo[1,5-a]pyrimidin-7-ylamino)cyclopentyl)methyl rel-sulfamate] belongs 100%.
